From PubChem BioAssay AID1259407 (Chemical Carcinogenesis Research Information System (CCRIS), 2018)
Active and inactive are the calls of the source. How the calls were made is not given here.

Tested on: CCRIS mutagenicity, Ames/micronucleus/aberration tests
Test: CCRIS mutagenicity studies
[1] = Test System: AMES SALMONELLA TYPHIMURIUM, Strain/Indicator: TA98, Metabolic Activation: NONE, Method: PREINCUBATION
[2] = Test System: AMES SALMONELLA TYPHIMURIUM, Strain/Indicator: TA100, Metabolic Activation: NONE, Method: STANDARD PLATE

Q: CCOC(C)=O was tested. Which mutagenic call (End Point: IN VITRO CHROMOSOMAL ABERRATIONS, Test System: CHO-LB CELLS, Metabolic Activation: NONE) did it give?
A: The mutagenic call was “inactive; negative”.

Q: And the mutagenic call (End Point: IN VITRO CHROMOSOMAL ABERRATIONS, Test System: CHO-LB CELLS, Metabolic Activation: RAT, LIVER, S-9, AROCLOR 1254)?
A: Its mutagenic call is “inactive; negative”.

Q: What about the mutagenic call (End Point: IN VIVO MICRONUCLEUS, Test System: BONE MARROW POLYCHROMATIC ERYTHROCYTES, Species: MOUSE, Strain/Sex: DDY/MALE, Route: IP) of the same compound?
A: Its mutagenic call is “inactive; negative”.

Q: And the mutagenic call (Test System: AMES SALMONELLA TYPHIMURIUM, Strain/Indicator: TA97, Metabolic Activation: HAMSTER, LIVER, S-9, AROCLOR 1254 (10 OR 30%), Method: PREINCUBATION)?
A: The mutagenic call was “inactive; negative”.

Q: What about the mutagenic call (Test System: AMES SALMONELLA TYPHIMURIUM, Strain/Indicator: TA97, Metabolic Activation: NONE, Method: PREINCUBATION) of the same compound?
A: The mutagenic call was “inactive; negative”.

Q: And the mutagenic call (Test System: AMES SALMONELLA TYPHIMURIUM, Strain/Indicator: TA97, Metabolic Activation: RAT, LIVER, S-9, AROCLOR 1254 (10 OR 30%), Method: PREINCUBATION)?
A: Its mutagenic call is “inactive; negative”.

Q: What about the mutagenic call (Test System: AMES SALMONELLA TYPHIMURIUM, Strain/Indicator: TA98, Metabolic Activation: HAMSTER, LIVER, S-9, AROCLOR 1254 (10 OR 30%), Method: PREINCUBATION) of the same compound?
A: The mutagenic call was “inactive; negative”.

Q: And the mutagenic call [1]?
A: The mutagenic call was “inactive; negative”.

Q: And the mutagenic call (Test System: AMES SALMONELLA TYPHIMURIUM, Strain/Indicator: TA98, Metabolic Activation: RAT, LIVER, S-9, AROCLOR 1254 (10 OR 30%), Method: PREINCUBATION)?
A: Its mutagenic call is “inactive; negative”.

Q: What about the mutagenic call (Test System: AMES SALMONELLA TYPHIMURIUM, Strain/Indicator: TA98, Metabolic Activation: RAT, LIVER, S-9, PHENOBARBITAL AND BETA-NAPHTHOFLAVONE, Method: PREINCUBATION) of the same compound?
A: Its mutagenic call is “inactive; negative”.

Q: What about the mutagenic call (Test System: AMES SALMONELLA TYPHIMURIUM, Strain/Indicator: TA100, Metabolic Activation: HAMSTER, LIVER, S-9, AROCLOR 1254 (10 OR 30%), Method: PREINCUBATION) of the same compound?
A: The mutagenic call was “inactive; negative”.

Q: What about the mutagenic call (Test System: AMES SALMONELLA TYPHIMURIUM, Strain/Indicator: TA100, Metabolic Activation: NONE, Method: PREINCUBATION) of the same compound?
A: Its mutagenic call is “inactive; negative”.

Q: What about the mutagenic call (Test System: AMES SALMONELLA TYPHIMURIUM, Strain/Indicator: TA100, Metabolic Activation: RAT, LIVER, S-9, AROCLOR 1254 (10 OR 30%), Method: PREINCUBATION) of the same compound?
A: Its mutagenic call is “inactive; negative”.

Q: What about the mutagenic call (Test System: AMES SALMONELLA TYPHIMURIUM, Strain/Indicator: TA100, Metabolic Activation: RAT, LIVER, S-9, PHENOBARBITAL AND BETA-NAPHTHOFLAVONE, Method: PREINCUBATION) of the same compound?
A: Its mutagenic call is “inactive; negative”.

Q: What about the mutagenic call (Test System: AMES SALMONELLA TYPHIMURIUM, Strain/Indicator: TA102, Metabolic Activation: NONE, Method: PREINCUBATION) of the same compound?
A: The mutagenic call was “inactive; negative”.

Q: What about the mutagenic call (Test System: AMES SALMONELLA TYPHIMURIUM, Strain/Indicator: TA102, Metabolic Activation: RAT, LIVER, S-9, PHENOBARBITAL AND BETA-NAPHTHOFLAVONE, Method: PREINCUBATION) of the same compound?
A: The mutagenic call was “inactive; negative”.

Q: And the mutagenic call (Test System: AMES SALMONELLA TYPHIMURIUM, Strain/Indicator: TA104, Metabolic Activation: NONE, Method: PREINCUBATION)?
A: The mutagenic call was “inactive; negative”.

Q: And the mutagenic call (Test System: AMES SALMONELLA TYPHIMURIUM, Strain/Indicator: TA104, Metabolic Activation: RAT, LIVER, S-9, PHENOBARBITAL AND BETA-NAPHTHOFLAVONE, Method: PREINCUBATION)?
A: Its mutagenic call is “inactive; negative”.

Q: What about the mutagenic call (Test System: AMES SALMONELLA TYPHIMURIUM, Strain/Indicator: TA1535, Metabolic Activation: HAMSTER, LIVER, S-9, AROCLOR 1254 (10 OR 30%), Method: PREINCUBATION) of the same compound?
A: Its mutagenic call is “inactive; negative”.

Q: And the mutagenic call (Test System: AMES SALMONELLA TYPHIMURIUM, Strain/Indicator: TA1535, Metabolic Activation: NONE, Method: PREINCUBATION)?
A: Its mutagenic call is “inactive; negative”.

Q: What about the mutagenic call (Test System: AMES SALMONELLA TYPHIMURIUM, Strain/Indicator: TA1535, Metabolic Activation: RAT, LIVER, S-9, AROCLOR 1254 (10 OR 30%), Method: PREINCUBATION) of the same compound?
A: The mutagenic call was “inactive; negative”.

Q: And the mutagenic call (Test System: AMES SALMONELLA TYPHIMURIUM, Strain/Indicator: TA1535, Metabolic Activation: RAT, LIVER, S-9, PHENOBARBITAL AND BETA-NAPHTHOFLAVONE, Method: PREINCUBATION)?
A: Its mutagenic call is “inactive; negative”.

Q: What about the mutagenic call (Test System: AMES SALMONELLA TYPHIMURIUM, Strain/Indicator: TA1537, Metabolic Activation: HAMSTER, LIVER, S-9, AROCLOR 1254 (30%), Method: PREINCUBATION) of the same compound?
A: The mutagenic call was “inactive; negative”.

Q: And the mutagenic call (Test System: AMES SALMONELLA TYPHIMURIUM, Strain/Indicator: TA1537, Metabolic Activation: NONE, Method: PREINCUBATION)?
A: Its mutagenic call is “inactive; negative”.

Q: And the mutagenic call (Test System: AMES SALMONELLA TYPHIMURIUM, Strain/Indicator: TA1537, Metabolic Activation: RAT, LIVER, S-9, AROCLOR 1254 (30%), Method: PREINCUBATION)?
A: Its mutagenic call is “inactive; negative”.

Q: What about the mutagenic call (Test System: AMES SALMONELLA TYPHIMURIUM, Strain/Indicator: TA1537, Metabolic Activation: RAT, LIVER, S-9, PHENOBARBITAL AND BETA-NAPHTHOFLAVONE, Method: PREINCUBATION) of the same compound?
A: Its mutagenic call is “inactive; negative”.

Q: And the mutagenic call (Test System: E. COLI, Strain/Indicator: WP2UVRA/PKM101, Metabolic Activation: NONE, Method: PREINCUBATION)?
A: The mutagenic call was “inactive; negative”.

Q: What about the mutagenic call (Test System: E. COLI, Strain/Indicator: WP2UVRA/PKM101, Metabolic Activation: RAT, LIVER, S-9, PHENOBARBITAL AND BETA-NAPHTHOFLAVONE, Method: PREINCUBATION) of the same compound?
A: The mutagenic call was “inactive; negative”.

Q: What about the mutagenic call (Test System: E. COLI, Strain/Indicator: WP2UVRA, Metabolic Activation: NONE, Method: PREINCUBATION) of the same compound?
A: The mutagenic call was “inactive; negative”.

Q: And the mutagenic call (Test System: E. COLI, Strain/Indicator: WP2UVRA, Metabolic Activation: RAT, LIVER, S-9, PHENOBARBITAL AND BETA-NAPHTHOFLAVONE, Method: PREINCUBATION)?
A: Its mutagenic call is “inactive; negative”.

Q: How did the mutagenic call [2] turn out when O=C1CC(=C(Cl)Cl)C(=O)N1 was run?
A: The mutagenic call was “active; positive”.

Q: With CC(=O)Oc1ccc(CCl)cc1 as the compound, how does the mutagenic call [2] read?
A: The mutagenic call was “active; positive”.

Q: How did the mutagenic call [1] turn out when CCCCNC(=O)C=Cc1ccc([N+](=O)[O-])o1 was run?
A: Its mutagenic call is “active; positive”.
